This is an account of results in publication PMC9179336, “Therapeutic Validation of GEF-H1 Using a De Novo Designed Inhibitor in Models of Retinal Disease” (Cells, 2022).

Where no end group is shown, it is not given here.

The test system of series [1] is RPE cells (TGFβ-stimulated). Kind of series: RPE cell scratch wound migration assay. In kind it is cell-based, porcine. As to conditions: 16 h.
In series [2] the test system is MDCK cells. Kind of series: Caspase 3/7 activity (Apo-ONE), MDCK cells. In kind it is cell-based. As to conditions: overnight, increasing concentrations. The method, then:
(§1) HEK293 and MDCK cells were seeded in triplicate wells and incubated overnight with the indicated concentration of TAT-P5 or TAT-F1. The next day 30 μL of medium was removed from each well and incubated with 30μL of CytoTox-ONE (Promega) reagent for 40 min. Fluorescence was then measured to assess LDH release. To assess Caspase 3/7 activity cells were assayed using Apo-ONE Homogenous Caspase-3/7 assay (Promega) according to manufactures instructions.
(§2) We next tested whether the inhibitors are toxic to cultured cells. MDCK and HEK293 cells were incubated with increasing concentrations of either TAT-F1 or TAT-P5 overnight before analysis of LDH release as a measure of necrosis or Caspase 3/7 activity to assess induction of apoptosis (Figure S2).
(§3) MDCK (A) and HEK 293 (B) cells were incubated overnight with TAT-F1 or TAT-P5 at the concentrations indicated. Cell toxicity was then assessed by measuring caspase 3/7 activity in cell extracts and release of LDH into the medium. No significant cell toxicity was observed.
(§4) (1 picture or pasted object on this page, not shown here)

In series [3] the test system is HEK293 cells. Kind of series: Caspase 3/7 activity (Apo-ONE), HEK293 cells. In kind it is cell-based. As to conditions: overnight, increasing concentrations. The method, then:
as §1, §2, §3, §4

Series [4] concerns HEK293 cells. The series can be described thus: LDH release (CytoTox-ONE), HEK293 cells. The format is cell-based. As to conditions: overnight, increasing concentrations. Here is the method:
as §1, §2, §3, §4

Series [5] deals with MDCK cells. The series can be described thus: LDH release (CytoTox-ONE), MDCK cells. As to conditions: overnight, increasing concentrations. The format is cell-based. The method, then:
as §1, §2, §3, §4

“GRKKRRQRRRPWQDYIAEVPRSDYDLRPTGQD [TAT-scr, scrambled version of TAT-P5, negative control peptide]”: the “RPE cell migration (scratch closure), in words” value in series [1] was “had no effect”.

As for “GRKKRRQRRRPWQGQEDYDRLRPASYPDTDVI [TAT-P5]”, the “cytotoxicity, Caspase 3/7 activity (apoptosis), MDCK” value in the series on MDCK cells [2] is reported as “Neither assay revealed an increase in cytotoxicity”. Further, the “cytotoxicity, Caspase 3/7 activity (apoptosis), HEK293” value with HEK293 cells [3] is reported as “Neither assay revealed an increase in cytotoxicity”. For the same sequence, in the series on HEK293 cells [4], the “cytotoxicity, LDH release (necrosis), HEK293” value is recorded as “Neither assay revealed an increase in cytotoxicity”. For the same sequence, in the series on MDCK cells [5], the “cytotoxicity, LDH release (necrosis), MDCK” value was “Neither assay revealed an increase in cytotoxicity”.
